Earlier results in patent US20070281881A1, “Methods And Compositions Comprising Non-Peptide Small Molecules That Solubilize Beta Amyloid Peptide Fiber” (priority 2004, published 2007).

Key:
Aβ = Aβ (Homo sapiens, UniProt P05067); conditions: result in words, from cited studies
[1] = result in words, from cited studies

Sequence of Aβ (P05067 672-713 limits assumed): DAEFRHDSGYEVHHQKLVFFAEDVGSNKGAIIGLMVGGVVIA

| Structure (SMILES) | binding to Aβ and effect on Aβ aggregation (Aβ) | crossing of the blood brain barrier [1] |
| --- | --- | --- |
| COc1ccc2[nH]cc(CCNC(C)=O)c2c1 [Melatonin] | binds and slows down Aβ aggregation | easily crosses the blood brain barrier |
| CN1CCCC1c1cccnc1 (stereo not drawn) [nicotine] | binds and slows down Aβ aggregation |  |
